In Sander's compilation of Henry's law constants (doi:10.1246/bcsj.55.1054):

Test: Henry solubility constant Hcp at 298.15 K (mol/(m3 Pa))
Details: reference: Sanemasa et al. (1982)

For `Cc1ccc(C)c(C)c1` [1,2,4-trimethylbenzene], the “Henry solubility constant Hcp” value was 0.0016.
With `c1ccccc1` [benzene] the “Henry solubility constant Hcp” value was 0.0017.
In the case of `CC(C)c1ccccc1` [(2-propyl)-benzene], the “Henry solubility constant Hcp” value is reported as 0.00089.
In the case of `CCc1ccccc1` [ethylbenzene], the “Henry solubility constant Hcp” value is reported as 0.0013.
For `Cc1cccc(C)c1` [1,3-dimethylbenzene], the “Henry solubility constant Hcp” value was 0.0014.
For `CCCc1ccccc1` [propylbenzene], the “Henry solubility constant Hcp” value was 0.00095.
For `Cc1ccccc1` [methylbenzene], the “Henry solubility constant Hcp” value was 0.0015.
In the case of `Cc1ccc(C)cc1` [1,4-dimethylbenzene], the “Henry solubility constant Hcp” value is reported as 0.0013.
With `Cc1ccccc1C` [1,2-dimethylbenzene] the “Henry solubility constant Hcp” value was 0.0019.
In the case of `Cc1cccc(C)c1C` [1,2,3-trimethylbenzene], the “Henry solubility constant Hcp” value is reported as 0.0024.
With `Cc1cc(C)cc(C)c1` [1,3,5-trimethylbenzene] the “Henry solubility constant Hcp” value was 0.0011.
